In US6372800B1, “Benzene compound and pharmaceutical use thereof” (Mitsubishi Pharma Corporation, priority 1994, dated 2002):
Several values for one entry are separate records, joined by “and”; a condition that tells them apart may be missing. Equal values may be shown once.

Columns and labels:
[1] = test system: host versus graft reaction in rats; assay: Inhibitory effect on host versus graft (HvG) reaction in rats (popliteal lymph node weight); type: in vivo, rat; conditions: administered daily for 4 days after the injection with cells intravenously or orally, difference of right and left popliteal lymph node weights
Method: (§1) The spleen is removed from male WKAH rats at ages of 4 to 5 weeks old and is used to obtain a single cell suspension of spleen cells using RPMI 1640 medium (containing kanamycin sulfate at […], penicillin G potassium at 100 unit/ml, N-2-hydroxyethylpiperazine-N-2-ethane sulfate at 10 mM, 0.1% sodium bicarbonate, and L-glutamine at 2 mM). After the treatment of lysing of red blood cells, the cells are washed at three times and are adjusted at 5×10^7 cells/ml with physiological saline. By injection into right hind foot pad of 100 ul of spleen cell suspension, the host versus graft reaction (HvG reaction) are induced. After 4 days of the injection with cells, both of right and left popliteal lymph nodes are removed and the weight of them are measured. The test compounds are examined by difference of the lymph node weights between right and left as a indicator of HvG reaction. In addition, after 4 days of the injection with cells, blood is obtained from tail vein of the rats and the number of peripheral white blood cells are measured using automatic hemocytometer for animal (MEK-5158, Nihonkouden Co. Ltd.). Test compounds are administered daily for 4 days after the injection with cells intravenously or orally.
(§2) The value in the table represents minimum effective dose (mg/kg).

[2] = test system: peripheral white blood cells; assay: Reduction of peripheral white blood cells in rats of the HvG reaction test; type: in vivo, rat; conditions: for Reduction of peripheral white blood cells, minimum effective dose: administered daily for 4 days intravenously or orally, blood from tail vein 4 days after the injection with cells; for reduction of peripheral white blood cell number relative to immunosuppressive dose (assessment in words): conclusion drawn from Table 1 (HvG test)
Method: as §1, §2

melting point | Reduction of peripheral white blood cells, minimum effective dose [2] [mg/kg] | Structure (SMILES) | Inhibitory effect on HvG reaction, minimum effective dose [1] [mg/kg] | reduction of peripheral white blood cell number relative to immunosuppressive dose (assessment in words) [2]
150 to 151 °C | – | CCCCCCCOc1ccc(CCC(C)(CO)NC(=O)c2cc([N+](=O)[O-])cc([N+](=O)[O-])c2)cc1 (racemic) | – | –
114 to 115 °C and 115 to 116 °C | – | CCCCCCCOc1ccc(CCC(CO)(CCC)NC(=O)c2cc([N+](=O)[O-])cc([N+](=O)[O-])c2)cc1 (racemic) [Working Example 29] | – | –
– | 0.03 | CCCCCCCOc1ccc(CCC(C)(N)CO)cc1.Cl (stereo not drawn) [Compound of experiment 1, 2-Amino-4-(4-heptyloxyphenyl)-2-methylbutanol Hydrochloride] | 0.03 | weakness of reduction of peripheral white blood cell number
71 to 73 °C | 0.03 | CCCCCCCCCc1ccc(CCCC(N)(CO)CCO)cc1 (stereo not drawn) [Compound of experiment 3, 2-Amino-2-[3-(4-nonylphenyl)propyl]butane-1,4-diol] | 0.03 | weakness of reduction of peripheral white blood cell number
108 to 110 °C | 0.03 | CCCCCCCOc1ccc(CCC(N)(CC)CO)cc1.Cl (stereo not drawn) [Compound of experiment 27, 2-Amino-2-ethyl-4-(4-heptyloxyphenyl)butanol Hydrochloride] | 0.03 | weakness of reduction of peripheral white blood cell number
– | 3 | CCCCCCCOc1ccc(CC[C@@](N)(CO)CCC)cc1.Cl [Compound of experiment 31, (R)-2-amino-2-[2-(4-heptyloxyphenyl)ethyl]pentanol Hydrochloride] | <0.3 | weakness of reduction of peripheral white blood cell number
– | 3 | CCCCCCCOc1ccc(CCC(N)(CO)C(C)C)cc1.CCCCCCCOc1ccc(CCC(N)(CO)C(C)C)cc1.Cl.Cl.O (stereo not drawn) [Compound of experiment 60, 2-Amino-2-isopropyl-4-(4-heptyloxyphenyl)butanol Hydrochloride 1/2 Hydrate] | 1 | weakness of reduction of peripheral white blood cell number
– | 3 | CCCCCCCOc1ccc(CCC(C)(N)CO)cc1OC (stereo not drawn) [Compound of experiment 66, 2-Amino-4-(4-heptyloxy-3-methoxyphenyl)-2-methylbutanol 1/10 Hydrate] | 3 | weakness of reduction of peripheral white blood cell number
– | 0.03 | CCCCCCCCc1ccc(CCC(N)(CO)CO)cc1.Cl [FTY720, 2-amino-2-[2-(4-octylphenyl)ethyl]propane-1,3-diol hydrochloride, reference compound] | 0.1 | –
68 to 71 °C | – | CCCCCCCc1ccc(CCCC(N)(CO)CCO)cc1 (stereo not drawn) [Working Example 4, 2-Amino-2-[3-(4-heptylphenyl)propyl]butane-1,4-diol] | – | –
90 to 91 °C | – | CCCCCCCOc1ccc(CCC(CO)(CCC)NC(=O)c2cc([N+](=O)[O-])cc([N+](=O)[O-])c2)cc1 (stereo not drawn) [Working Example 32] | – | –
78 to 79 °C | – | CCCCCCCOc1ccc(CCC(CO)(CCO)NC(=O)c2cc([N+](=O)[O-])cc([N+](=O)[O-])c2)cc1 (stereo not drawn) [Working Example 115] | – | –
77 to 79 °C | – | CCCCCCCOc1ccc(CCC(CO)(CCO)NC(=O)c2cc([N+](=O)[O-])cc([N+](=O)[O-])c2)cc1 (stereo not drawn) [Working Example 116] | – | –

Structure (SMILES) | melting point | Reduction of peripheral white blood cells, minimum effective dose [2] [mg/kg] | Inhibitory effect on HvG reaction, minimum effective dose [1] [mg/kg] | reduction of peripheral white blood cell number relative to immunosuppressive dose (assessment in words) [2]
CCCCCCCCCCCCc1ccc(CCC(CCOC(C)=O)(COC(C)=O)NC(C)=O)cc1 (stereo not drawn) [Working Example 16, 3-Acetamido-3-acetoxymethyl-5-(4-dodecylphenyl)pentyl Acetate] | 75 to 77 °C | – | – | –
CCCCCCCC(=O)c1ccc(CCC(CCOC(C)=O)(CCOC(C)=O)NC(C)=O)cc1 [Working Example 100, 3-Acetamido-5-acetoxy-3-[2-(4-octanoylphenyl)ethyl]pentyl Acetate] | 83 to 86 °C | – | – | –
